Patent publication US12564641B2 (EISAI R&D MANAGEMENT CO., LTD., priority 2019, dated 2026)
Where two headings read alike, the source gives them in different places.

Key:
[1] = system: H226 cells; assay: In vitro cytotoxicity analysis (Crystal Violet), H226; assay type: cell-based; conditions: Homo sapiens
Procedure: Plates were read at 570 nm. Data was analyzed using GraphPad Prism 6.

[2] = system: human mesothelioma HAY xenograft
Procedure: Female CD-1 IGS mice (Charles River, 7-9 weeks old) were used for the maximum tolerated dose (MTD) study, female NOD.CB17-SCID mice (Jackson Laboratory) were used for the NCI-H2110 and HAY xenograft studies, and female NCr nude mice (Taconic, 5 weeks old) were used for the NCI-N87 xenograft studies. Upon arrival, animals were acclimated for 5-7 days prior to inoculation.
Cryopreserved NCI-H2110, NCI-N87, or HAY cells from frozen stocks were cultured in medium containing necessary supplements.
Mice were injected subcutaneously with 100 μL/mouse of cell mixture and monitored for body weight and tumor growth.
Mice were randomized to five mice per group once tumor implants reached an average volume of 100 mm^3. Treatment was given intravenously at a volume of 200 μL. Terminal body weight was measured and recorded at the end of each study.
Comparison of tumor growth within each experimental group was also performed using the same statistical analysis.

[3] = system: various cell lines (51 cell lines); assay: In vitro potency (IC50, Crystal Violet) in cell lines with varying mesothelin expression; assay type: cell-based
Procedure: Cytotoxicitly Cells were sub-cultured and seeded at 5,000 cells/well in complete growth medium in 96-well tissue culture plates, and incubated at 37° C., 5% CO2 overnight (16 hours). Test reagents were serially diluted 1:3 in 2 mL deep-well dilution plates, starting at 200 nM (10 dilutions total). Diluted samples (100 μL) were added to the cell plates (starting concentration of test samples at 100 nM). Plates were incubated at 37° C., 5% CO2 for an additional 5 days. Medium was then discarded, and plates were washed once with 200 μL DPBS, stained with 50 μL of 0.2% Crystal Violet solution at room temperature for 15 min, and then washed extensively with tap water. Plates were air-dried, and Crystal Violet was dissolved with 200 μL of 1% SDS solution. Plates were read at 570 nm. Data was analyzed for IC50 determination using GraphPad Prism 6. Correlation analysis was performed in GraphPad Prism using a non-parametric Spearman analysis.

`C=C1C[C@@H]2CC[C@@]34C[C@H]5O[C@H]6[C@@H](O3)[C@H]3O[C@H](CC[C@@H]3O[C@H]6[C@H]5O4)CC(=O)C[C@@H]3[C@@H](OC)[C@@H](C[C@H](O)CN)O[C@H]3C[C@H]3O[C@@H](CC[C@@H]1O2)C[C@@H](C)C3=C` [Eribulin, eribulin, reference compound] was tested. Which EC50 ([1]; NCI-H226, 120 h, Table 18, 5 days, read-out: Cell-Based Cytotoxicity Assay, EC50 (nM) H226) did it give?
Its EC50 is 5.3 nM.

What about the EC50 ([1]; NCI-H226, Table 19, payloads, read-out: Cell-Based Cytotoxicity Assay EC50 (nM) H226) of the same compound?
Its EC50 is 5.3 nM.

And the anti-tumor effect ([2]; eribulin alone 0.1 mg/kg (equivalent molar amount as in MORAb-109))?
The anti-tumor effect was “limited anti-tumor effects”.

What about the anti-tumor effect ([2]; eribulin alone at the MTD (3.2 mg/kg)) of the same compound?
Its anti-tumor effect is “limited anti-tumor effects”.

And the IC50 ([3]; A431-K5 cells (MSLN MFI 1430.3))?
The IC50 was 1.5 nM.

And the IC50 ([3]; COV362, COV362 cells (MSLN MFI 113.5))?
The IC50 was 2.78 nM.

And the IC50 ([3]; HAC-2 cells (MSLN MFI 172.3))?
Its IC50 is 26.6 nM.

What about the IC50 ([3]; HEC-251, HEC-251 cells (MSLN MFI 53.3)) of the same compound?
The IC50 was 0.5 nM.

And the IC50 ([3]; HK-1, HK1 cells (MSLN MFI 39.2))?
Its IC50 is 0.89 nM.

What about the IC50 ([3]; HNE1, HNE-1 cells (MSLN MFI 110.8)) of the same compound?
Its IC50 is 0.87 nM.

And the IC50 ([3]; HNE-1-T1 cells (MSLN MFI 79.3))?
The IC50 was 1.03 nM.

And the IC50 ([3]; Homo sapiens, A549, A549 cells (MSLN MFI 14.2))?
The IC50 was 2.72 nM.

And the IC50 ([3]; Homo sapiens, A-431, A431 cells (MSLN MFI 5.6))?
The IC50 was 0.55 nM.

What about the IC50 ([3]; Homo sapiens, ASPC1, AsPC1 cells (MSLN MFI 33.47)) of the same compound?
The IC50 was 1.62 nM.

What about the IC50 ([3]; Homo sapiens, BXPC-3, BxPC3 cells (MSLN MFI 15.59)) of the same compound?
The IC50 was 0.66 nM.

What about the IC50 ([3]; Homo sapiens, CNE-2, CNE2 cells (MSLN MFI 147.7)) of the same compound?
The IC50 was 0.49 nM.

And the IC50 ([3]; Homo sapiens, Caov-3, CaOV-3 cells (MSLN MFI 137.6))?
Its IC50 is 0.44 nM.

And the IC50 ([3]; Homo sapiens, Capan-2, Capan-2 cells (MSLN MFI 36))?
Its IC50 is 1.21 nM.

What about the IC50 ([3]; Homo sapiens, EGI-1, EGI-1 cells (MSLN MFI 14.8)) of the same compound?
The IC50 was 1.48 nM.

And the IC50 ([3]; Homo sapiens, HCC1806, HCC1806 cells (MSLN MFI 189.3))?
Its IC50 is 0.37 nM.

And the IC50 ([3]; Homo sapiens, HEC-1-A, HEC-1-A cells (MSLN MFI 16.5))?
Its IC50 is 0.68 nM.

And the IC50 ([3]; Homo sapiens, HEC-1B, HEC-1-B cells (MSLN MFI 16.9))?
Its IC50 is 0.54 nM.

What about the IC50 ([3]; Homo sapiens, HONE1, HONE1 cells (MSLN MFI 108.6)) of the same compound?
Its IC50 is 0.89 nM.

And the IC50 ([3]; Homo sapiens, JIMT-1, JIMT-1 cells (MSLN MFI 36.4))?
The IC50 was 0.39 nM.

What about the IC50 ([3]; Homo sapiens, Lu-65, Lu65 cells (MSLN MFI 13.13)) of the same compound?
The IC50 was 0.56 nM.

What about the IC50 ([3]; Homo sapiens, MFE-280, MFE-280 cells (MSLN MFI 45.1)) of the same compound?
The IC50 was 3.24 nM.

What about the IC50 ([3]; Homo sapiens, MKN-1, MKN1 cells (MSLN MFI 22.06)) of the same compound?
Its IC50 is 0.96 nM.

What about the IC50 ([3]; Homo sapiens, MKN-7, MKN7 cells (MSLN MFI 18.48)) of the same compound?
Its IC50 is 0.58 nM.

And the IC50 ([3]; Homo sapiens, MKN-45, MKN45 cells (MSLN MFI 57.94))?
Its IC50 is 3.65 nM.

And the IC50 ([3]; Homo sapiens, MKN-74, MKN74 cells (MSLN MFI 7.73))?
The IC50 was 0.78 nM.

And the IC50 ([3]; Homo sapiens, NCI-H23, NCI-H23 cells (MSLN MFI 4.42))?
Its IC50 is 0.6 nM.

And the IC50 ([3]; Homo sapiens, NCI-H226, H226 cells (MSLN MFI 725.3))?
The IC50 was 0.66 nM.

And the IC50 ([3]; Homo sapiens, NCI-H292, NCI-H292 cells (MSLN MFI 108.6))?
The IC50 was 0.58 nM.

And the IC50 ([3]; Homo sapiens, NCI-H460, NCI-H460 cells (MSLN MFI 8.56))?
Its IC50 is 35.3 nM.

What about the IC50 ([3]; Homo sapiens, NCI-H1355, NCI-H1355 cells (MSLN MFI 11.5)) of the same compound?
The IC50 was 0.67 nM.

What about the IC50 ([3]; Homo sapiens, NCI-H1650, NCI-H1650/MSLN cells (MSLN MFI 1865.5)) of the same compound?
The IC50 was 0.84 nM.

And the IC50 ([3]; Homo sapiens, NCI-H1650, NCI-H1650 cells (MSLN MFI 31.5))?
Its IC50 is 0.61 nM.

What about the IC50 ([3]; Homo sapiens, NCI-H2126, NCI-H2126 cells (MSLN MFI 73.6)) of the same compound?
Its IC50 is 0.53 nM.

What about the IC50 ([3]; Homo sapiens, NCI-N87, NCI-N87 cells (MSLN MFI 125.8)) of the same compound?
The IC50 was 0.11 nM.

And the IC50 ([3]; Homo sapiens, OVCAR-3, OVCAR3 A1 cells (MSLN MFI 220))?
The IC50 was 0.15 nM.

And the IC50 ([3]; Homo sapiens, PC-9, PC9 cells (MSLN MFI 11.24))?
Its IC50 is 0.56 nM.

What about the IC50 ([3]; Homo sapiens, SUNE1, SUNE1 cells (MSLN MFI 212.4)) of the same compound?
The IC50 was 0.56 nM.

And the IC50 ([3]; Homo sapiens, T47D, T-47D cells (MSLN MFI 4.4))?
Its IC50 is 0.68 nM.

And the IC50 ([3]; Kuramochi cells (MSLN MFI 211.2))?
The IC50 was 0.89 nM.

What about the IC50 ([3]; MOR/CPR cells (MSLN MFI 120.79)) of the same compound?
Its IC50 is 3.69 nM.

What about the IC50 ([3]; NCI-H322, NCI-H322 cells (MSLN MFI 83.9)) of the same compound?
Its IC50 is 0.46 nM.

What about the IC50 ([3]; NCI-H1355-Sorted cells (MSLN MFI 32.7)) of the same compound?
Its IC50 is 0.7 nM.

And the IC50 ([3]; NCI-H1568, NCI-H1568/MSLN cells (MSLN MFI 4474))?
Its IC50 is 0.44 nM.

And the IC50 ([3]; NCI-H2110, NCI-H2110 cells (MSLN MFI 112.2))?
The IC50 was 0.32 nM.

And the IC50 ([3]; SNU-216, SNU216 cells (MSLN MFI 94.91))?
The IC50 was 1.78 nM.

What about the IC50 ([3]; SNU-245 cells (MSLN MFI 23.9)) of the same compound?
Its IC50 is 78.2 nM.

And the IC50 ([3]; SNU-478 cells (MSLN MFI 53.8))?
Its IC50 is 1.58 nM.

What about the IC50 ([3]; SNU-1196 cells (MSLN MFI 40.2)) of the same compound?
The IC50 was 1.14 nM.

What about the IC50 ([3]; TFK1 cells (MSLN MFI 132.81)) of the same compound?
Its IC50 is 1.27 nM.
